system: HT-29 cells; test: HT29 Cells 0FBS Assay In Vitro (TNF-α/SMAC mimetic/zVAD-FMK induced necroptosis, CellTiter-Glo cell viability); assay type: cell-based; conditions: Homo sapiens; HT-29 cells, FBS free medium, TNF-α (10 ng/ml), SMAC mimetic (6 uM), zVAD-FMK (10 μM), 20 hours; geometric mean EC50; read-out: Cell activity (EC50) of Compounds 1-116
Source text: Protocol for HT29 Cells 0FBS Assay In Vitro
• Cell line: HT-29 (ATCC® HTB-38™) • Culture medium: McCOY's 5 A, Gibco, Cat No. 16600-082 • FBS, Gibco, Cat No. 10099-141C • Trypsin: Gibco, Cat No. 25200-056 • DMSO: Sigma, Cat No. 67-68-5, 1 L • Assay plate: Corning #3903 • Compound dilution plate: Corning #3357 • Inducers: TNFα, GenScript, Cat No. ZO1001-50, • SmacM, Cat. No., HY-15989, MedChemExpress (MCE) • Z_VAD FMK, TargetMol, T6013 • Cell Titer-Glo® Luminescent Cell Viability Assay Kit: Promega, Cat No. G7573 • EnVision: PerkinElmer, 2105-0010 2. Cell Seeding of HT-29 Cells • 1) HT-29 cells were checked every day to make sure they are healthy and growing as expected. They were split sub-culturing when were approximately 80% confluent. • 2) First pre-warm the culture medium of McCOY's 5 A medium (Gibco, Cat No. 16600-082) with 10% FBS (Gibco, Cat No. 10099-141C) in 37° C. water bath for at least 30 min. • 3) Growing cells to desired level of confluency 80% in a T75 flask, aspirate the medium, and wash with warm PBS two times. • 4) Add 2-3 ml fresh warm trypsin (Gibco, Cat No. 25200-056) solution. Transfer the flask to a 37° C. incubator. • 5) After 5 minutes, tap the side of the flask, and examine the flask under a microscope for lifting. If necessary, return the cells to the incubator for an additional 5-10 minutes, with occasional tapping, until lifting is complete. • 6) Quickly neutralize the trypsin reaction by adding 6-9 ml cell culture medium, then transfer the cells to sterile 15 ml conical tubes. Pellet the cells by centrifugation at 300×g for 7 minutes, then decant the supernatant. • 7) Resuspend the cells in fresh cell culture medium. Do cell counting with hemocytometer. • 8) Seed 100 μl of 5,000 cells into each well of the sterile 96-well cell culture plate (Corning 3903) and culture overnight at 37° C. with 5% C02. 3. Compounds Titration and Treatment of HT-29 Cells • 1) All batches of compounds (CPDs) (e.g., compound 1-281) were dissolved in DMSO (Dimethyl sulfoxide) as 20 mM stock solution. • 2) Take 3 ul 20 mM stock solution of CPDs to 27 ul DMSO and mix well, continue the titration ratio of 1:3 (20 ul CPDs+40 ul DMSO), e.g., to give solutions of CPDS at 6.6 mM, 2.2 mM, etc., till the 10 points end. • 3) Take out assay plates with HT-29 cells from incubator, remove all culture medium then wash 1 time with 1×PBS, and change fresh McCOY's 5 A medium of FBS free with a cocktail of TNF-α (10 ng/ml), the SMAC mimetic (6 uM) and zVAD-FMK (10 μM) to stimulate the HT-29 cells to increase pRIPK1 levels and necroptosis. • 4) Add 0.5 μL of the diluted compound to the corresponding 96-well assay plates. • 5) Incubate the assay plates for 20 hours at 37° C. with 5% C02. 4. Performing Cell Viability Detection of HT-29 Cells after Treated with Compounds • 1) The CellTiter-Glo® Luminescent Cell Viability Assay was employed to detect the ATP levels of viable HT-29 cells. • 2) Equilibrate the CellTiter-Glo® buffer and the lyophilized substrate to room temperature prior to use. • 3) Resuspend the CellTiter-Glo® substrate with CellTiter-Glo® buffer, mix by gently vortexing to obtain a homogeneous solution. • 4) Pipette 20 μl the enzyme/substrate mixture by multi-channel pipette into the 96-well assay plates from step 5) under the Compounds titration and treatment stage. • 5) Place the plates on an orbital shaker and mix the contents for 3 minutes to induce cell lysis. • 6) Then allow the plates to incubate at room temperature for 10 minutes to stabilize luminescent signal. • 7) Read and record luminescence signal with EnVision. • 8) The geometric mean EC50 of the compounds were calculated from points response dose with duplicate. In Tables 2 and 4, activity is provided as follows: +++=0.1 nM≤EC50<100 nM; ++=100 nM≤EC50<1000 nM; +=1000 nM≤EC50<10000 nM.

Question: Which EC50 does the source give for Cn1nccc1-c1ccc(F)c(OC2CN(C(=O)N3N=CC[C@H]3c3cc(F)cc(F)c3)C2)n1 (stereo in doubt) [compound 1, (5-(3,5-difluorophenyl)-4,5-dihydro-1H-pyrazol-1-yl)(3-((3-fluoro-6-(1-methyl-1H-pyrazol-5-yl)pyridin-2-yl)oxy)azetidin-1-yl)methanone] here?
Answer: Its EC50 is 0.1 to 100 nM.

Question: Cn1nccc1-c1ncc(F)c(OC2CN(C(=O)N3N=CC[C@H]3c3cc(F)cc(F)c3)C2)n1 [compound 2, (S)-(5-(3,5-difluorophenyl)-4,5-dihydro-1H-pyrazol-1-yl)(3-((5-fluoro-2-(1-methyl-1H-pyrazol-5-yl)pyrimidin-4-yl)oxy)azetidin-1-yl)methanone] was tested. Which EC50 did it give?
Answer: The EC50 was 0.1 to 100 nM.

Question: For Cn1nccc1-c1cc(OC2CN(C(=O)N3N=CC[C@H]3c3cc(F)cc(F)c3)C2)c(F)cn1 [compound 3, (S)-(5-(3,5-difluorophenyl)-4,5-dihydro-1H-pyrazol-1-yl)(3-((5-fluoro-2-(1-methyl-1H-pyrazol-5-yl)pyridin-4-yl)oxy)azetidin-1-yl)methanone], which EC50 is on record?
Answer: Its EC50 is 0.1 to 100 nM.

Question: Which EC50 does the source give for CCn1nccc1-c1cc(OC2CN(C(=O)N3N=CC[C@H]3c3cc(F)cc(F)c3)C2)c(F)cn1 [compound 4, (S)-(5-(3,5-difluorophenyl)-4,5-dihydro-1H-pyrazol-1-yl)(3-((2-(1-ethyl-1H-pyrazol-5-yl)-5-fluoropyridin-4-yl)oxy)azetidin-1-yl)methanone] here?
Answer: Its EC50 is 0.1 to 100 nM.

Question: For Cn1ccnc1-c1ccc(F)c(OC2CN(C(=O)N3N=CC[C@H]3c3cc(F)cc(F)c3)C2)n1 [compound 5, (S)-(5-(3,5-difluorophenyl)-4,5-dihydro-1H-pyrazol-1-yl)(3-((3-fluoro-6-(1-methyl-1H-imidazol-2-yl)pyridin-2-yl)oxy)azetidin-1-yl)methanone], which EC50 is on record?
Answer: Its EC50 is 0.1 to 100 nM.

Question: With Cn1cncc1-c1ccc(F)c(OC2CN(C(=O)N3N=CC[C@H]3c3cc(F)cc(F)c3)C2)n1 [compound 6, (S)-(5-(3,5-difluorophenyl)-4,5-dihydro-1H-pyrazol-1-yl)(3-((3-fluoro-6-(1-methyl-1H-imidazol-5-yl)pyridin-2-yl)oxy)azetidin-1-yl)methanone] as the molecule, how does the EC50 read?
Answer: Its EC50 is 0.1 to 100 nM.

Question: For Cn1cncc1-c1cc(OC2CN(C(=O)N3N=CC[C@H]3c3cc(F)cc(F)c3)C2)c(F)cn1 [compound 7, (S)-(5-(3,5-difluorophenyl)-4,5-dihydro-1H-pyrazol-1-yl)(3-((5-fluoro-2-(1-methyl-1H-imidazol-5-yl)pyridin-4-yl)oxy)azetidin-1-yl)methanone], which EC50 is on record?
Answer: Its EC50 is 0.1 to 100 nM.

Question: Which EC50 does the source give for Cn1cncc1-c1ncc(F)c(OC2CN(C(=O)N3N=CC[C@H]3c3cc(F)cc(F)c3)C2)n1 [compound 8, (S)-(5-(3,5-difluorophenyl)-4,5-dihydro-1H-pyrazol-1-yl)(3-((5-fluoro-2-(1-methyl-1H-imidazol-5-yl)pyrimidin-4-yl)oxy)azetidin-1-yl)methanone] here?
Answer: The EC50 was 0.1 to 100 nM.

Question: Which EC50 does the source give for Cc1ncsc1-c1ncc(F)c(OC2CN(C(=O)N3N=CC[C@H]3c3cc(F)cc(F)c3)C2)n1 [compound 9, (S)-(5-(3,5-difluorophenyl)-4,5-dihydro-1H-pyrazol-1-yl)(3-((5-fluoro-2-(4-methylthiazol-5-yl)pyrimidin-4-yl)oxy)azetidin-1-yl)methanone] here?
Answer: The EC50 was 0.1 to 100 nM.

Question: Cc1ncsc1-c1ccc(F)c(OC2CN(C(=O)N3N=CC[C@H]3c3cc(F)cc(F)c3)C2)n1 [compound 10, (S)-(5-(3,5-difluorophenyl)-4,5-dihydro-1H-pyrazol-1-yl)(3-((3-fluoro-6-(4-methylthiazol-5-yl)pyridin-2-yl)oxy)azetidin-1-yl)methanone] was tested. Which EC50 did it give?
Answer: The EC50 was 0.1 to 100 nM.

Question: With Cc1ncsc1-c1cc(OC2CN(C(=O)N3N=CC[C@H]3c3cc(F)cc(F)c3)C2)c(F)cn1 [compound 11, (S)-(5-(3,5-difluorophenyl)-4,5-dihydro-1H-pyrazol-1-yl)(3-((5-fluoro-2-(4-methylthiazol-5-yl)pyridin-4-yl)oxy)azetidin-1-yl)methanone] as the molecule, how does the EC50 read?
Answer: The EC50 was 0.1 to 100 nM.

Question: With Cc1scnc1-c1ncc(F)c(OC2CN(C(=O)N3N=CC[C@H]3c3cc(F)cc(F)c3)C2)n1 [compound 12, (S)-(5-(3,5-difluorophenyl)-4,5-dihydro-1H-pyrazol-1-yl)(3-((5-fluoro-2-(5-methylthiazol-4-yl)pyrimidin-4-yl)oxy)azetidin-1-yl)methanone] as the molecule, how does the EC50 read?
Answer: Its EC50 is 0.1 to 100 nM.

Question: Which EC50 does the source give for Cc1scnc1-c1ccc(F)c(OC2CN(C(=O)N3N=CC[C@H]3c3cc(F)cc(F)c3)C2)n1 [compound 13, (S)-(5-(3,5-difluorophenyl)-4,5-dihydro-1H-pyrazol-1-yl)(3-((3-fluoro-6-(5-methylthiazol-4-yl)pyridin-2-yl)oxy)azetidin-1-yl)methanone] here?
Answer: Its EC50 is 0.1 to 100 nM.

Question: For Cc1scnc1-c1cc(OC2CN(C(=O)N3N=CC[C@H]3c3cc(F)cc(F)c3)C2)c(F)cn1 [compound 14, (S)-(5-(3,5-difluorophenyl)-4,5-dihydro-1H-pyrazol-1-yl)(3-((5-fluoro-2-(5-methylthiazol-4-yl)pyridin-4-yl)oxy)azetidin-1-yl)methanone], which EC50 is on record?
Answer: Its EC50 is 0.1 to 100 nM.

Question: With Cc1nscc1-c1ncc(F)c(OC2CN(C(=O)N3N=CC[C@H]3c3cc(F)cc(F)c3)C2)n1 [compound 15, (S)-(5-(3,5-difluorophenyl)-4,5-dihydro-1H-pyrazol-1-yl)(3-((5-fluoro-2-(3-methylisothiazol-4-yl)pyrimidin-4-yl)oxy)azetidin-1-yl)methanone] as the molecule, how does the EC50 read?
Answer: The EC50 was 0.1 to 100 nM.

Question: For Cc1nscc1-c1ccc(F)c(OC2CN(C(=O)N3N=CC[C@H]3c3cc(F)cc(F)c3)C2)n1 [compound 16, (S)-(5-(3,5-difluorophenyl)-4,5-dihydro-1H-pyrazol-1-yl)(3-((3-fluoro-6-(3-methylisothiazol-4-yl)pyridin-2-yl)oxy)azetidin-1-yl)methanone], which EC50 is on record?
Answer: The EC50 was 0.1 to 100 nM.

Question: With Cc1nscc1-c1cc(OC2CN(C(=O)N3N=CC[C@H]3c3cc(F)cc(F)c3)C2)c(F)cn1 [compound 17, (S)-(5-(3,5-difluorophenyl)-4,5-dihydro-1H-pyrazol-1-yl)(3-((5-fluoro-2-(3-methylisothiazol-4-yl)pyridin-4-yl)oxy)azetidin-1-yl)methanone] as the molecule, how does the EC50 read?
Answer: Its EC50 is 0.1 to 100 nM.

Question: Cc1csnc1-c1ncc(F)c(OC2CN(C(=O)N3N=CC[C@H]3c3cc(F)cc(F)c3)C2)n1 [compound 18, (S)-(5-(3,5-difluorophenyl)-4,5-dihydro-1H-pyrazol-1-yl)(3-((5-fluoro-2-(4-methylisothiazol-3-yl)pyrimidin-4-yl)oxy)azetidin-1-yl)methanone] was tested. Which EC50 did it give?
Answer: Its EC50 is 0.1 to 100 nM.

same assay, conditions: Homo sapiens; HT-29 cells, FBS free medium, TNF-α (10 ng/ml), SMAC mimetic (6 uM), zVAD-FMK (10 μM), 20 hours; geometric mean EC50; read-out: Cell activity (EC50) of Compounds 117-281

Question: Cc1c([S+](C)[O-])nn(C)c1-c1cc(OC2CN(C(=O)N3N=CC[C@H]3c3cc(F)cc(F)c3)C2)c(F)cn1 (stereo in doubt) [compound 178, (5-(3,5-difluorophenyl)-4,5-dihydro-1H-pyrazol-1-yl)(3-((2-(1,4-dimethyl-3-(methylsulfinyl)-1H-pyrazol-5-yl)-5-fluoropyridin-4-yl)oxy)azetidin-1-yl)methanone] was tested. Which EC50 did it give?
Answer: Its EC50 is 0.1 to 100 nM.
